The source of these data is US12714702B2, “Compositions and methods for treating or preventing pulmonary hypertension” (priority 2020, dated 2026).

One experiment has as its system bovine HAPASMC. Kind of experiment: Anti-proliferative efficacy in high-altitude bovine PASMC. In kind it is cell-based. The conditions noted are these: inherently highly proliferating bovine HAPASMC, 1.5-5.0 μM, time- and concentration-dependent. Here is the method:
Data represent mean±SD (n=5) repeated over 3 experiments. *p<0.05.
(§1) Human or bovine PASMC were treated with varying concentrations of QA (1.5-, 3.1-, and 6.2-μM). Cellular proliferation was measured at day 1, day 3 and day 5 by following the manufacturer's protocol. Briefly, a reagent mix of nucleic acid stain and background suppressor were added in PBS followed by addition of the mix in treatment wells (100 μL/well). The plates were incubated at 37° C./5% CO2 for one hour followed by evaluation of fluorescence at 485 ex/535 em. Proliferation inhibition was analyzed relative to control wells on each time point. Data was averaged from two trials with n=6 for SMC II and one trial of n=4 for SMC III.
In-vitro studies to measure anti-proliferative activity of QA against pulmonary hypertension were performed using primary human PASMC (FIG. 3), primary bovine PASMC (FIG. 4) and high altitude PASMC (HAPASMC) (FIG. 4). HAPASMC, due to prolonged hypoxia exposure, are known to be hyper-proliferative in regular culture conditions, while hyper-proliferation was induced in PASMC cells by 24 hour serum starvation, or by exposure to 5-hydroxytryptamine (5-HT). […]

In experiment [1] the test system is serum starved bovine PASMCs. Kind of experiment: Autophagy inhibition assay, Cyto-ID autophagy detection kit. It counts as cell-based. The conditions noted are these: QA 2.5 and 5 μM, 24 hours. Here is the method:
In FIGS. 9A-9B, PASMC were serum starved for 24 hours, and then treated with varying QA concentrations in serum-starved media. Quantification was performed using Cyto-ID® autophagy kit and Annexin-V/FITC apoptosis kit. […] In FIG. 9C, autophagy inhibition by QA (5 μM) as depicted by increase in LC3B-II concentration in bovine high altitude PASMC quantified by western blot assay kit. Data represent mean±SD (n=3). *p<0.05.
Bovine PASMCs were serum starved in FBS-free media for 24 hours, and then treated with QA for 24 hours at various concentrations (0, 2.5, or 5 μM). Autophagic inhibition (lysosomal fusion with autophagosomes) was measured with Cyto-ID® autophagy detection kit (Enzo Lifesciences Inc., Farmingdale NY) according to manufacturer's manual.
Autophagy inhibition (lysosomal fusion with autophagosomes) by QA was examined. Bovine PASMCs were serum starved in FBS-free media for 24 hours, and then treated with QA (2.5 and 5 μM) for 24 hours. Autophagic inhibition was measured with Cyto-ID® autophagy detection kit. […] QA-induced autophagy inhibition by targeting LC3B-II expression was examined using HAPASMCs.
In other independent experiments, QA's ability to modulate autophagy/apoptotic pathways was quantified in vitro in serum-starved bovine PASMC cells. Similar results were observed.

Experiment [2] relates to serum starved human PASMC. Kind of experiment: Proliferation after cell starvation, CyQUANT Direct. In kind it is cell-based. The conditions noted are these: Day 5 at 3.1 and 6.2 μM, Day 3 at 6.2 μM. Here is the method: (§2) Primary human PASMC were treated with QA up to 6.2 μM concentration. Cell proliferation was quantified by Cyquant Direct.
Briefly, diseased IPAH SMC II cells were seeded in TC-treated 96 well plates in FBS-rich medium and were allowed to adhere overnight. Following day, FBS-rich media was replaced with FBS-Starved media (0% FBS). Cells were further incubated at 37° C./5% CO2 for 24 hours followed by treatments with varying concentrations of QA (1.5-, 3.1-, and 6.2-μM) with dilutions being made in FBS-Starved media. Cellular proliferation was measured as described herein.
In-vitro studies to measure anti-proliferative activity of QA against pulmonary hypertension were performed using primary human PASMC (FIG. 3), primary bovine PASMC (FIG. 4) and high altitude PASMC (HAPASMC) (FIG. 4). HAPASMC, due to prolonged hypoxia exposure, are known to be hyper-proliferative in regular culture conditions, while hyper-proliferation was induced in PASMC cells by 24 hour serum starvation, or by exposure to 5-hydroxytryptamine (5-HT). […] As hyper-proliferation of vascular smooth muscle cells is one of the primary underlying causes for clinical progression of PH pathogenesis, these experiments highlight the therapeutic potential of QA in reversing PH symptoms and progression at non-toxic doses.

In experiment [3] the test system is MCT-induced rodent model of pulmonary hypertension. Kind of experiment: Monocrotaline (MCT) induced therapeutic rat model of pulmonary hypertension, hemodynamics. In kind it is in vivo. The conditions noted are these: MCT rats, QA 10 mg/kg s.c. once-a-day for 10 days starting 3 weeks after MCT. Here is the method:
Adult male SD rats were injected with MCT (50 mg/kg) by subcutaneous injection. QA administration was initiated 21 days (3 weeks) after MCT administration, once-a-day by subcutaneous route at 10 mg/kg for 10 days. […] Data represent mean±SEM (n=5). *p<0.05.
Preclinical in-vivo studies for QA were earlier performed at a dose of 10 mg/kg once-a-day in monocrotaline (MCT) induced therapeutic PAH model. Hemodynamic parameters were collected and lung tissues were also collected and were sectioned for visualizing the impact of QA treatment on various PAH biomarkers in-vivo.
To determine the therapeutic activity of QA against PH, the drug was tested using chronic hemodynamic studies in a monocrotaline (MCT)-induced rodent model of pulmonary hypertension. MCT induction is a well established preliminary model, with a single subcutaneous injection of MCT producing chronic PH-like symptoms in rats over a course of 3-4 weeks. Briefly, MCT was subcutaneously injected in adult male Sprague Dawley (SD) rats at 50 mg/kg, and rats were housed for 3 weeks with free access to food and water. […] At the end of day 10, animals were anesthetized to determine right ventricular systolic pressure (RVSP) by RV catheterization, and RV hypertrophy (RVH) was measured by collecting the heart-lung blocks.

Experiment [4] relates to Ki67, PCNA, vWF, α-SMA in SU5416/Hypoxia-induced PAH animal lung tissue. Kind of experiment: SU5416/hypoxia model, immunofluorescence of lung tissue. In kind it is in vivo, rat. The conditions noted are these: SU5416/hypoxia rats. Here is the method: Preclinical in-vivo studies for QA were earlier performed at a dose of 10 mg/kg once-a-day in a SU5416/Hypoxia-induced preventative/prophylactic PAH model. Hemodynamic parameters were collected and lung tissues were also collected and were sectioned for visualizing the impact of QA treatment on various PAH biomarkers in-vivo.
Paraffin embedded tissue sections for control animals, hypoxia induced PAH animals and QA treated animals were further subjected to immunofluorescent staining to analyze expression levels of essential molecular markers. Deparaffinization of tissues was done by exposing tissue sections to a solution of xylene for 3 minutes twice followed by washing with 200 proof absolute 99.8% ethanol and 50% ethanol. Tissues were further washed with 1×PBS twice to ensure complete deparaffinization. Similar protocol was followed hereon for immunofluorescent staining of tissue sections.

In a further experiment the test system is primary human PASMC. Kind of experiment: Standard cell proliferation, CyQUANT Direct. The conditions noted are these: Day 3 and Day 5, single QA treatment at 3.1 and 6.2 μM. It counts as cell-based. Here is the method:
as §2
Cellular proliferation for diseased IPAH SMC II (Patient ID: L164) cells was evaluated using CyQUANT™ Direct Cell Proliferation Assay (ThermoFisher Scientific, Waltham, MA, USA). Briefly, upon 90% confluency, SMCs were harvested and seeded in TC-treated 96-well plates at a density of 1000 cells/well and were allowed to adhere overnight.
as §1
In-vitro studies to measure anti-proliferative activity of QA against pulmonary hypertension were performed using primary human PASMC (FIG. 3), primary bovine PASMC (FIG. 4) and high altitude PASMC (HAPASMC) (FIG. 4). […]

The structures appear in SMILES notation.

Take `CCN(CC)CCCC(C)Nc1c2ccc(Cl)cc2nc2ccc(OC)cc12` (stereo not drawn) [QA, quinacrine]: the proliferation result with bovine HAPASMC is listed as “significantly inhibits proliferation”. Besides, the “accumulation of fluorescent dye in autophagosomes (autophagy inhibition)” value in experiment [1] is recorded as “significantly enhanced the accumulation”. Besides, the cellular hyper-proliferation entry in experiment [2] is reported as “Significant reduction”. Also, in experiment [3], the “right ventricular systolic pressure (RVSP)” value is recorded as 39.9±1.8 mm Hg. Moreover, in experiment [4], the “expression of Ki67” value was “reduction in expression”, the “expression of PCNA” value is reported as “reduction in expression”, the “expression of vWF” value is “did not show any reduction in expression” and the “expression of α-SMA” value is listed as “did not show any reduction in expression”. The cellular hyper-proliferation result with primary human PASMC is reported as “Significant reduction”.
